Measurements as given in BindingDB's records for doi:10.1021/jm00109a029 (Research Biochemicals, 1991).

Assay: Compound was evaluated for inhibition of specifically bound [3H]- cocaine (2.7 nM) against Dopamine transporter in cynomolgus monkeys

With `COC(=O)C1C2CCC(C[C@@H]1c1ccc(F)cc1)N2` (stereo partly specified) the IC50 was 36 nM.
